Test results from US5246957A, “N-imidazolyl derivatives of substituted indole” (Farmitalia Carlo Erba S.r.l., priority 1991, dated 1993).
Read-outs that look alike come from different tables or passages of the source.

Columns and labels:
[1] = test system: TxB2 synthesis; experiment: TxB2 Synthesis Inhibition in vitro, in whole blood of normal rats; assay type: cell-based, Sprague Dawley rats; settings: Rattus norvegicus, read-out: In vitro effect on TxB2 synthesis in normal rats, IC50 (whole blood)
Experimental: (§1) The effects of a representative group of compounds of the invention were evaluated, in comparison with known compounds, on TxB2 synthesis inhibition in vitro, in whole blood of normal rats, and on TxA2 antagonism in a binding assay in washed human platelets.
TxB2 Synthesis Inhibition
Blood was withdrawn from the abdominal aorta of normal Sprague Dawley rats (Charles River Italy) under light ether anaestesia. The blood was immediately divided in portions of 0.5 ml and distributed in glass tubes each containing a concentration of the test compound, or of the reference compounds.
Samples were then allowed to clot for 1 hour at 37° C., centrifuged at 3000 rpm for 10 min, and serum collected and stored at -20° C. until assayed.

[2] = biological target: T1, TxA2 receptor (Homo sapiens, UniProt P21731); experiment: Displacement of [^3 H]-SQ 29,548 Binding to Washed Human Platelets; settings: for affinity for the receptor compared with reference standards: versus BM 13505 and BM 13177; for IC50: washed human platelets, [^3 H]-SQ 29,548 5 nM, 30 min at 25° C., pH 7.4, n = 3, read-out: ^3 H SQ 29548 binding displacement (washed human platelet) IC50
T1 construct: endogenous in cells; host or cells: washed platelets from blood of healthy human volunteers
T1 sequence (P21731 1-343): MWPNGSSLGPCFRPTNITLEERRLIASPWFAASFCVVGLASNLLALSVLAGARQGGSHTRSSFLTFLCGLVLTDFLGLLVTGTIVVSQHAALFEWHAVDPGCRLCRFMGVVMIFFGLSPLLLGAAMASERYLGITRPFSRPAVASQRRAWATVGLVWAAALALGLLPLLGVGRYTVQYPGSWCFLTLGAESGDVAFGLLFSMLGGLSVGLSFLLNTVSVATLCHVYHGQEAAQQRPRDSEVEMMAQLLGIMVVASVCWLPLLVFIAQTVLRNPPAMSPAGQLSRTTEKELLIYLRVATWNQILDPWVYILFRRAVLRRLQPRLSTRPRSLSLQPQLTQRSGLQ
Experimental: as §1
Displacement of [^3 H]-SQ 29,548 Binding to Washed Human Platelets
Blood from healthy volunteers of both sexes who had not taken any medication for at least 10 days was collected into one-tenth volume of acid citrate dextrose containing indomethacin (28 μM). Platelet rich plasma (PRP), obtained by centrifugation of the blood at 200× g for 20 min, was washed twice (1000× g for 10 min). The platelets were then resuspended in Tyrode-Hepes buffer (pH 7.4) to a final concentration of […] and incubated for 0-60 min at 25° with [^3 H]-SQ 29,548 (5 nM). For displacement experiments various concentrations (10^-9 -10^-4 M) of competing ligands were added and incubated for 30 min at 25° C. […] After the incubation, 4 ml of ice-cold TRIS-HCl buffer ( 10 mM, pH 7.4) was added to each tube and the reaction mixture was immediately filtered by suction through a Whatman GF/C glass filter disc which was washed 2 times with ice-cold TRIS-HCl (4 ml) and counted for radioactivity by a Packard β-counter.
The binding data were analysed by computerized non-linear curve fitting using the Ligand program and expressed as IC50.

[3] = whole blood of normal rats, clotted 1 hour at 37° C., TxB2 by RIA

Row | SMILES | IC50 ([1]; 1 h) | IC50 [1, 3] | affinity for the receptor compared with reference standards [2] | IC50 [2]
1 | CC(=O)Oc1ccccc1C(=O)O [ASA, acetylsalicilic acid] | 31000 nM |  |  | 
2 | O=C(O)c1ccc(OCCn2ccnc2)cc1 [Dazoxiben, dazoxiben] |  | 1200 nM |  | 
3 | Cc1c(CCC(=O)O)n(Cc2ccc(-n3ccnc3)cc2)c2ccc(F)cc12 [FCE 27005, 5-Fluoro-1-[[4-(1H-imidazol-1-yl)phenyl]methyl]-3-methyl-1H-indole-2-propanoic acid] |  |  | affinity for the receptor greater than those of compounds BM 13505 and BM 13177 | 32.9 nM
4 | Cc1c(CCCC(=O)O)n(Cc2ccc(-n3ccnc3)cc2)c2ccc(F)cc12 [FCE 27093, 5-Fluoro-1-[[4-(1H-imidazol-1-yl)phenyl]methyl]-3-methyl-1H-indole-2-butanoic acid] |  | 1190 nM | affinity for the receptor greater than those of compounds BM 13505 and BM 13177 | 11.9 nM
